The values that follow come from patent US20230124087A1, “KV3 ENHANCERS FOR THE TREATMENT OF COGNITIVE DISORDERS” (Hoffmann-La Roche Inc., priority 2020, published 2023).

Molecules are shown by their SMILES.

For orientation: EC50 means the concentration needed to bring the measured effect to its halfway point.

The first assay has as its target T1, Kv3.1 (Homo sapiens, UniProt P48547).
T1 construct: expressed in transfected cells
T1 sequence (P48547 1-511): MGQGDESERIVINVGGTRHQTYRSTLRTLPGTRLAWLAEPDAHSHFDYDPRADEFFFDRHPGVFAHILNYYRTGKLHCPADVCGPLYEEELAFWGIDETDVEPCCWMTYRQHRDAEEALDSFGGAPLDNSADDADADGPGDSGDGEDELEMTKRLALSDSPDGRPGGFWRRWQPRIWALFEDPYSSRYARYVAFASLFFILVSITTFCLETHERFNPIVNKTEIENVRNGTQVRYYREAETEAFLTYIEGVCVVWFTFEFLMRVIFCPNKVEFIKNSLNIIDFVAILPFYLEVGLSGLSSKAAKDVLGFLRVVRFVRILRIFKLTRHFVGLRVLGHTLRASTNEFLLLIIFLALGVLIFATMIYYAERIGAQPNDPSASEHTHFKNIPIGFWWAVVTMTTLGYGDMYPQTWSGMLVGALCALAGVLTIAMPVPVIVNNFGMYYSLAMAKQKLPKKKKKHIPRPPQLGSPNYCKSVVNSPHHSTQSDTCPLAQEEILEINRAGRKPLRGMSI
In words: Kv3.1 automated patch clamp (Qube) cellular electrophysiology assay.
Conditions: not given
In kind it is cell-based. The source says:
In vitro, high-throughput cellular electrophysiology was employed to detect voltage-dependence of compounds in single concentration screening and IC50 determination for library and medicinal chemistry profiling compounds in 384 well plates.
HEK-293 cell lines stably expressing coding DNA for Kv3.1, 3.2, 3.3, and 3.4 were validated on an automated patch clamp (APC) platform, Qube from Sophion/Denmark. Cell cultures were maintained in DMEM cell growth media containing FBS and appropriate antibiotics at 37° C., 5% CO2 for a maximum of 20 passages. Intra- and extracellular (w. glucose) HEPES buffers containing various monovalent and divalent cations were adjusted to pH 7.2 and 7.4 respectively. Cells were harvested at 75% confluency and resuspended in extracellular buffer and added to wells. Negative pressure was applied to establish whole cell recording by APC.
Currents through activated channels were measured directly by APC by employing depolarization voltage steps. Baseline currents were established for the voltage-dependence protocols using a −80 mV holding potential and multiple test pulses at +10 mV or by 10 mV steps from −80 mV to +40 mV, respectively. Test compounds were added after baseline recordings followed by a 10 min incubation, and voltage-dependency protocol recordings. Data was corrected for baseline and leak currents (well based) and normalized for % potentiation (plate based). Two previously reported Kv3 positive modulators of varying potencies were used for run to run and plate to plate quality controls. A non-selective and potent positive modulator was used as a positive control. Percent potentiation was analyzed at −20 mV of the voltage-dependency protocol and voltage shift in channel activation was analyzed using the voltage step protocol from −80 mV to +40 mV. Selectivity was assessed against Kv3.2, Kv3.3, and Kv3.4 overexpressing cell lines using similar methods.
In general terms: In patch-clamp work, channel activity is measured electrically.
As to `O=c1[nH]c2cccnc2n1-c1ccc(Oc2cccc3c2C2(CC2)CO3)nc1` [Example 1, 3-(6-spiro[2H-benzofuran-3,1′-cyclopropane]-4-yloxy-3-pyridyl)-1H-imidazo[4,5-b]pyridin-2-one], the EC50 is 0.3 µM.

As to `O=c1[nH]c2cncnc2n1-c1ccc(Oc2cccc3c2C2(CC2)CO3)nc1` [Example 2, 9-(6-spiro[2H-benzofuran-3,1′-cyclopropane]-4-yloxy-3-pyridyl)-7H-purin-8-one], the EC50 worked out at 0.8 µM.

On to `Cc1ccc(Oc2ccc(-n3c(=O)[nH]c4cccnc43)cn2)cc1Cl` [Example 3, 3-[6-(3-chloro-4-methyl-phenoxy)-3-pyridyl]-1H-imidazo[4,5-b]pyridin-2-one], for which the half-maximal effective concentration (EC50) was found to be 1.6 µM.

As for `CC(C)(C)c1cc(C#N)ccc1Oc1ccc(-n2c(=O)[nH]c3cccnc32)cn1` [Example 4, 3-tert-butyl-4-[[5-(2-oxo-1H-imidazo[4,5-b]pyridin-3-yl)-2-pyridyl]oxy]benzonitrile], the EC50 amounted to 2 µM.

Consider `CC(C)c1cc(Oc2ccc(-n3c(=O)[nH]c4cccnc43)cn2)ccc1C#N` [Example 5, 2-isopropyl-4-[[5-(2-oxo-1H-imidazo[4,5-b]pyridin-3-yl)-2-pyridyl]oxy]benzonitrile], for which the EC50 stood at 2.7 µM.

Consider `O=c1[nH]c2cnccc2n1-c1ccc(Oc2cccc3c2C2(CC2)CO3)nc1` [Example 6, 1-(6-spiro[2H-benzofuran-3,1′-cyclopropane]-4-yloxy-3-pyridyl)-3H-imidazo[4,5-c]pyridin-2-one], for which the EC50 is 2 µM.

`COc1cc(Oc2ccc(-n3c(=O)[nH]c4cc(F)cnc43)cn2)ccc1C` [Example 7, 6-fluoro-3-[6-(3-methoxy-4-methyl-phenoxy)-3-pyridyl]-1H-imidazo[4,5-b]pyridin-2-one]: the EC50 was 2.2 µM.

Regarding `O=c1[nH]c2cccnc2n1-c1ccc(Oc2cccc3c2C2(CC2)CO3)c(F)c1` [Example 8, 3-(3-fluoro-4-spiro[2H-benzofuran-3,1′-cyclopropane]-4-yloxy-phenyl)-1H-imidazo[4,5-b]pyridin-2-one], the EC50 was found to be 2.3 µM.

Consider `COc1cc(Oc2ccc(-n3c(=O)[nH]c4cc(C)cnc43)cn2)ccc1C` [Example 9, 3-[6-(3-methoxy-4-methyl-phenoxy)-3-pyridyl]-6-methyl-1H-imidazo[4,5-b]pyridin-2-one], for which the EC50 stood at 2.5 µM.

On to `O=c1[nH]c2ccccc2n1-c1ccc(Oc2cccc3c2C2(CC2)CO3)nc1` [Example 10, 3-(6-spiro[2H-benzofuran-3,1′-cyclopropane]-4-yloxy-3-pyridyl)-1H-benzimidazol-2-one], for which the EC50 worked out at 2.5 µM.

Consider `Cc1cc(-n2c(=O)[nH]c3ccccc32)cnc1Oc1cccc2c1C1(CC1)CO2` [Example 11, 3-(5-methyl-6-spiro[2H-benzofuran-3,1′-cyclopropane]-4-yloxy-3-pyridyl)-1H-benzimidazol-2-one], for which the EC50 was 2.8 µM.

For the compound `O=c1[nH]c2ccncc2n1-c1ccc(Oc2cccc3c2C2(CC2)CO3)nc1` [Example 12, 3-(6-spiro[2H-benzofuran-3,1′-cyclopropane]-4-yloxy-3-pyridyl)-1H-imidazo[4,5-c]pyridin-2-one], the EC50 was found to be 3.9 µM.

As to `O=c1[nH]c2ncccc2n1-c1ccc(Oc2cccc3c2C2(CC2)CO3)nc1` [Example 13, 1-(6-spiro[2H-benzofuran-3,1′-cyclopropane]-4-yloxy-3-pyridyl)-3H-imidazo[4,5-b]pyridin-2-one], the EC50 amounted to 3.4 µM.

`CC(C)c1cc(Oc2ccc(-n3c(=O)[nH]c4cc(F)cnc43)cn2)ccc1C#N` [Example 14, 4-[[5-(6-fluoro-2-oxo-1H-imidazo[4,5-b]pyridin-3-yl)-2-pyridyl]oxy]-2-isopropyl-benzonitrile]: the EC50 was found to be 2.7 µM.

Consider `CC(C)c1cc(Oc2ccc(-n3c(=O)[nH]c4cncnc43)cn2)ccc1C#N` [Example 15, 2-isopropyl-4-[[5-(8-oxo-7H-purin-9-yl)-2-pyridyl]oxy]benzonitrile], for which the EC50 was 3.5 µM.

Consider `CC(C)c1cc(Oc2ccc(-n3c(=O)[nH]c4cnccc43)cn2)ccc1C#N` [Example 16, 2-isopropyl-4-[[5-(2-oxo-3H-imidazo[4,5-c]pyridin-1-yl)-2-pyridyl]oxy]benzonitrile], for which the EC50 turned out to be 5.9 µM.

As to `CC(C)c1cc(Oc2ccc(-n3c(=O)[nH]c4cccnc43)cc2F)ccc1C#N` [Example 17, 4-[2-fluoro-4-(2-oxo-1H-imidazo[4,5-b]pyridin-3-yl)phenoxy]-2-isopropyl-benzonitrile], the EC50 is 4.7 µM.

Consider `CC(C)c1cc(Oc2ccc(-n3c(=O)[nH]c4cncnc43)cc2F)ccc1C#N` [Example 18, 4-[2-fluoro-4-(8-oxo-7H-purin-9-yl)phenoxy]-2-isopropyl-benzonitrile], for which the EC50 was 18.8 µM.

Consider `CC(C)c1cc(Oc2ccc(-n3c(=O)[nH]c4ccccc43)cn2)ccc1C#N` [Example 19, 2-isopropyl-4-[[5-(2-oxo-3H-benzimidazol-1-yl)-2-pyridyl]oxy]benzonitrile], for which the concentration for a half-maximal effect (EC50) is 15.6 µM.

As to `CC(C)(C)c1cc(C#N)ccc1Oc1ccc(-n2c(=O)[nH]c3ccccc32)cn1` [Example 20, 3-tert-butyl-4-[[5-(2-oxo-3H-benzimidazol-1-yl)-2-pyridyl]oxy]benzonitrile], the EC50 was 12.2 µM.

Consider `CCc1cc(Oc2ccc(-n3c(=O)[nH]c4ccccc43)cn2)ccc1C#N` [Example 21, 2-ethyl-4-[[5-(2-oxo-3H-benzimidazol-1-yl)-2-pyridyl]oxy]benzonitrile], for which the EC50 amounted to 18.5 µM.

In the case of `CC(C)Oc1cc(Oc2ccc(-n3c(=O)[nH]c4ccccc43)cn2)ccc1C#N` [Example 22, 2-isopropoxy-4-[[5-(2-oxo-3H-benzimidazol-1-yl)-2-pyridyl]oxy]benzonitrile], the EC50 worked out at 20.7 µM.

Take `O=c1[nH]c2ccccc2n1-c1ccc(Oc2cccc3c2C2(CC2)CO3)c(F)c1` [Example 23, 3-(3-fluoro-4-spiro[2H-benzofuran-3,1′-cyclopropane]-4-yloxy-phenyl)-1H-benzimidazol-2-one]: the EC50 was 3.5 µM.

For `CC(C)(C)c1cc(C#N)ccc1Oc1ccc(-n2c(=O)[nH]c3cncnc32)cn1` [Example 24, 3-tert-butyl-4-[[5-(8-oxo-7H-purin-9-yl)-2-pyridyl]oxy]benzonitrile], the EC50 worked out at 4 µM.

Consider `CC(C)(C)c1cc(C#N)ccc1Oc1ccc(-n2c(=O)[nH]c3cnccc32)cn1` [Example 26, 3-tert-butyl-4-[[5-(2-oxo-3H-imidazo[4,5-c]pyridin-1-yl)-2-pyridyl]oxy]benzonitrile], for which the EC50 came to 4.7 µM.

With `CC(C)(C)c1cc(C#N)ccc1Oc1ccc(-n2c(=O)[nH]c3cc(F)cnc32)cn1` [Example 27, 3-tert-butyl-4-[[5-(6-fluoro-2-oxo-1H-imidazo[4,5-b]pyridin-3-yl)-2-pyridyl]oxy]benzonitrile], the EC50 amounted to 5.5 µM.

Consider `COc1cc(Oc2ccc(-n3c(=O)[nH]c4cc(Cl)cnc43)cn2)ccc1C` [Example 28, 6-chloro-3-[6-(3-methoxy-4-methyl-phenoxy)-3-pyridyl]-1H-imidazo[4,5-b]pyridin-2-one], for which the EC50 was 10 µM.

As to `COc1cc(Oc2ccc(-n3c(=O)[nH]c4cc(C(F)(F)F)cnc43)cn2)ccc1C` [Example 29, 3-[6-(3-methoxy-4-methyl-phenoxy)-3-pyridyl]-6-(trifluoromethyl)-1H-imidazo[4,5-b]pyridin-2-one], the EC50 was 5.7 µM.

Take `COc1cc(Oc2ccc(-n3c(=O)[nH]c4ncccc43)cn2)ccc1C` [Example 30, 1-[6-(3-methoxy-4-methyl-phenoxy)-3-pyridyl]-3H-imidazo[4,5-b]pyridin-2-one]: the EC50 is 19.2 µM.

Take `COc1cc(Oc2ccc(-n3c(=O)[nH]c4ccncc43)cn2)ccc1C` [Example 31, 3-[6-(3-methoxy-4-methyl-phenoxy)-3-pyridyl]-1H-imidazo[4,5-c]pyridin-2-one]: the EC50 was found to be 21 µM.

In the case of `COc1cc(Oc2ccc(-n3c(=O)[nH]c4cnccc43)cn2)ccc1C` [Example 32, 1-[6-(3-methoxy-4-methyl-phenoxy)-3-pyridyl]-3H-imidazo[4,5-c]pyridin-2-one], the EC50 was 4.4 µM.

Still in this assay, the particulars now being: HEK-293 cell line stably expressing Kv3.1; automated patch clamp; 10 min incubation; read-out: EC50 Kv3.1.
Regarding `Cc1ccc(Oc2ccc(-n3c(=O)[nH]c4cncnc43)cn2)cc1OC(F)(F)F` [Example 25, 9-[6-[4-methyl-3-(trifluoromethoxy)phenoxy]-3-pyridyl]-7H-purin-8-one], the EC50 came out at 5.9 µM.
